Results reported in patent US9492471B2, “Methods of treating a disease or disorder associated with Bruton'S Tyrosine Kinase” (Celgene Avilomics Research, Inc., priority 2013, dated 2016).
Where two headings read alike, the source gives them in different places.

Columns and labels:
Test in all cases: HotSpot kinase profiling
Format in all cases: biochemical
[1] = biological target: T1, FGFR3 (Homo sapiens, UniProt P22607)
T1 construct: purchased Reaction Biology Corp
Method in brief: (§1)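 Percent inhibition, averaged when run more than once and referenced to a DMSO negative control, came from a radioactive filter-binding readout on P81 paper. Reactions of kinase with freshly made substrate and cofactors ran for 2 h at room temperature.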

[2] = biological target: T2, SGK3/SGKL (Homo sapiens, UniProt Q96BR1)
T2 construct: purchased Reaction Biology Corp
T2 sequence (Q96BR1 1-496): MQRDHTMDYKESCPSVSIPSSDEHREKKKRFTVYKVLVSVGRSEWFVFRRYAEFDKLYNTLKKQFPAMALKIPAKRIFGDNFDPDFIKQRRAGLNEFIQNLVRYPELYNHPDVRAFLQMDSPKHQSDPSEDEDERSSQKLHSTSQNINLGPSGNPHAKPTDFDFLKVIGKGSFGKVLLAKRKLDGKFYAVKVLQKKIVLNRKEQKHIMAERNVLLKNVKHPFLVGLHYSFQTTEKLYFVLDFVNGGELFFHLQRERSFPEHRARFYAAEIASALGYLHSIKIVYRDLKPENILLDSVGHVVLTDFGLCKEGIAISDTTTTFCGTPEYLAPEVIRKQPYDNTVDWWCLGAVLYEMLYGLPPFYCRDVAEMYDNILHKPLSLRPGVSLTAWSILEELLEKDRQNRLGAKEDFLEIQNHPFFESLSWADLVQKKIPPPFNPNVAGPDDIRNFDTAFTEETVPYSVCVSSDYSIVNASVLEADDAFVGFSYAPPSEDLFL
Method in brief: as §1

[3] = biological target: T3, CDK16/cyclin Y (Homo sapiens, UniProt Q00536)
T3 construct: purchased Reaction Biology Corp
Method in brief: as §1

[4] = biological target: T4, MAPKAPK2 (Homo sapiens, UniProt P49137)
T4 construct: purchased Reaction Biology Corp
Method in brief: as §1

[5] = biological target: T5, SRPK1 (Homo sapiens, UniProt Q96SB4)
T5 construct: purchased Reaction Biology Corp
Method in brief: as §1

[6] = biological target: T6, PIM3 (Homo sapiens, UniProt Q86V86)
T6 construct: purchased Reaction Biology Corp
Method in brief: as §1

[7] = biological target: T7, TAOK3/JIK (Homo sapiens, UniProt Q9H2K8)
T7 construct: purchased Reaction Biology Corp
T7 sequence (Q9H2K8 1-898): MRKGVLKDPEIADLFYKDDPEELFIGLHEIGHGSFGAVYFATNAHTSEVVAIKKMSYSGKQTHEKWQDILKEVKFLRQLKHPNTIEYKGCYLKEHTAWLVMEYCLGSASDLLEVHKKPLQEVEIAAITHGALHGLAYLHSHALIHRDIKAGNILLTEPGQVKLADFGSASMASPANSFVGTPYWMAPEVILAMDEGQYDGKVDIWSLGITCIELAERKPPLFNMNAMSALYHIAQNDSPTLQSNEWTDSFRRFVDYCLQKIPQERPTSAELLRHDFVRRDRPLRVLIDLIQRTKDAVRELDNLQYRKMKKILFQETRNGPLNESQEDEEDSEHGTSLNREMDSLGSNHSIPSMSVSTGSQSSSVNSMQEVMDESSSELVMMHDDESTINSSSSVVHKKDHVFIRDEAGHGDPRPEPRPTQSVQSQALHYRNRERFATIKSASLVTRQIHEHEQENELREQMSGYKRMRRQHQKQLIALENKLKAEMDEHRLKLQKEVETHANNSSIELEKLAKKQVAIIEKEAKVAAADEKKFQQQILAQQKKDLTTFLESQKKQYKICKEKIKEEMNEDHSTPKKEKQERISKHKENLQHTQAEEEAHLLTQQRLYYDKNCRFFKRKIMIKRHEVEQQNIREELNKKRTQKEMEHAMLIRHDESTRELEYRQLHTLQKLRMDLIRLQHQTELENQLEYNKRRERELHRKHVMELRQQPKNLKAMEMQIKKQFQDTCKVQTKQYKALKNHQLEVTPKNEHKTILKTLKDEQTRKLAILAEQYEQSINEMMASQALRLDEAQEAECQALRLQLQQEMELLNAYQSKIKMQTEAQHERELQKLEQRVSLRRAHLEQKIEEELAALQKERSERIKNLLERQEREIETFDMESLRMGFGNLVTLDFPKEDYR
Method in brief: as §1

[8] = read-out: % Enzyme Activity (relative to DMSO controls) Run 1
[9] = read-out: % Enzyme Activity (relative to DMSO controls) Run 2

T5 sequence (Q96SB4 whole entry): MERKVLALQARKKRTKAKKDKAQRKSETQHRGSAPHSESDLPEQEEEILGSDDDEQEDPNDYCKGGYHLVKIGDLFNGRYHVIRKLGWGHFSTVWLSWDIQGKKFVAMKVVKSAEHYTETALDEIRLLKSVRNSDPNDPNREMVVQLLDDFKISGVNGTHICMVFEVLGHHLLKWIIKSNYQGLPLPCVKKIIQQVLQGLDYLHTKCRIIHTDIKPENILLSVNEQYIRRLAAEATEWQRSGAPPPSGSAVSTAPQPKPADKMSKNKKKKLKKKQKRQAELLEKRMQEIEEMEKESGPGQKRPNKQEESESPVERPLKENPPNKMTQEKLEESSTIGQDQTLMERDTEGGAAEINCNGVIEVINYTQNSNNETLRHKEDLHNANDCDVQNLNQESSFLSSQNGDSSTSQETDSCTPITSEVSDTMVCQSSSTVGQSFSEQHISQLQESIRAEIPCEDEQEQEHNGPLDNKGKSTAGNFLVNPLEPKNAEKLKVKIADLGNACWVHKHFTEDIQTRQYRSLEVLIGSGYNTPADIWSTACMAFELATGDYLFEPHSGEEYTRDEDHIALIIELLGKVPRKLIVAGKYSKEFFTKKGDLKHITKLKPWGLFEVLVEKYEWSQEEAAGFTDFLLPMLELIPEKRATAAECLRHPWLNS
T1 sequence (P22607 23-806): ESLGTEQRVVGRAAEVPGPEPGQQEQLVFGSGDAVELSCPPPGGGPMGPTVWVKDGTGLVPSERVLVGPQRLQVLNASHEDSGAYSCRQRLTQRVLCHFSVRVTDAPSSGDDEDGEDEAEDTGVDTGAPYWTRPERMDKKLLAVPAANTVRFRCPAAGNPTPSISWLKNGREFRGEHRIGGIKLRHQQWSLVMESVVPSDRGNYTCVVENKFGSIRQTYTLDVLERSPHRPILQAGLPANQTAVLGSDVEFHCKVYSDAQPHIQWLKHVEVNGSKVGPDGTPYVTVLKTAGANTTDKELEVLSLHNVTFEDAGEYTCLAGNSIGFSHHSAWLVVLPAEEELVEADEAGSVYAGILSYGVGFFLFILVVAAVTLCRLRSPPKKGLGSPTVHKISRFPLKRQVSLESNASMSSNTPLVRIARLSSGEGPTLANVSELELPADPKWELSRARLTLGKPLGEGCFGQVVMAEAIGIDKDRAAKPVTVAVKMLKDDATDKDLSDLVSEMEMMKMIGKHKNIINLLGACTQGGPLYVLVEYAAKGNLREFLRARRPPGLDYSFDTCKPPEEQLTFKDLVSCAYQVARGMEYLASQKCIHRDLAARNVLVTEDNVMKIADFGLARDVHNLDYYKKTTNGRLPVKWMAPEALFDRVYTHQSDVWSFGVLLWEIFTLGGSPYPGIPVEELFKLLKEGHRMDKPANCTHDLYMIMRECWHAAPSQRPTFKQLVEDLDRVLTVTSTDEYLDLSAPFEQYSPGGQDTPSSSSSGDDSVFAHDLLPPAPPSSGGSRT
T3 sequence (Q00536 whole entry): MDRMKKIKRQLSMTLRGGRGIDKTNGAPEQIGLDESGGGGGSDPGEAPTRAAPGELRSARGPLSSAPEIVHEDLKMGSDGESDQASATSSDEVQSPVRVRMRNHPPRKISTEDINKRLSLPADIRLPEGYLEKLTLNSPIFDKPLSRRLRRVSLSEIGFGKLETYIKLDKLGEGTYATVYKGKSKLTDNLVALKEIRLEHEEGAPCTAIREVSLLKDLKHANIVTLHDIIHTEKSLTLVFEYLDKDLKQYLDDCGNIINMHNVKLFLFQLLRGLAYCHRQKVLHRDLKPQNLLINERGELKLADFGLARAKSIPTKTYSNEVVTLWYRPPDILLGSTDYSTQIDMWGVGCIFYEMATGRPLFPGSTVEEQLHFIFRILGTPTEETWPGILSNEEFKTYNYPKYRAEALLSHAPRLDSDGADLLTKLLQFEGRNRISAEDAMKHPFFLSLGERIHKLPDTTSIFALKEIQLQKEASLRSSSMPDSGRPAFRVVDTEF
T3 sequence (Q8ND76 whole entry partner): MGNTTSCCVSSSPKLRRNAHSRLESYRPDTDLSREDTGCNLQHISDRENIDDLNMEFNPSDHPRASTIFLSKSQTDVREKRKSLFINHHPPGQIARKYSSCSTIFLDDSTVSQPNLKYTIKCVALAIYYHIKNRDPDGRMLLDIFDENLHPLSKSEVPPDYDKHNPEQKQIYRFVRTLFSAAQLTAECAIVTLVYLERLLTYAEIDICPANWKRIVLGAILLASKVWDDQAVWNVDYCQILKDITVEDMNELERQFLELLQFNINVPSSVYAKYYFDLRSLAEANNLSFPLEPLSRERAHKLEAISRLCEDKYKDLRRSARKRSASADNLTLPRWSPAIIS
T4 sequence (P49137 whole entry): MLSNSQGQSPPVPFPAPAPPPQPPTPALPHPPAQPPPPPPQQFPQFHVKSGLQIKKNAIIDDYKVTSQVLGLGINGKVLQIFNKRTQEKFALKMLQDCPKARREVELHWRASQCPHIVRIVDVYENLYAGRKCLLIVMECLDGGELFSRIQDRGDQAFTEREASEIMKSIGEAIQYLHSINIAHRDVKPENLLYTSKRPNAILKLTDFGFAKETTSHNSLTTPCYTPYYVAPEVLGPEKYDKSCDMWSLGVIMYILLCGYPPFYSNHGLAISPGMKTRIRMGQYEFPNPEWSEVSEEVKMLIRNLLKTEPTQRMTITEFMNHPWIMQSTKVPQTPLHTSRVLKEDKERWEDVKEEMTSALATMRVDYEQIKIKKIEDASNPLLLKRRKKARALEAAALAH

## C=CC(=O)Nc1cccc(Nc2nc(Nc3ccc(OCCOC)c(F)c3)ncc2F)c1 [Compound 2]
[1]
  inhibition at 3 µM: 68%
[1]; [8]
  remaining activity at 3 µM: 32.1%
[1]; [9]
  remaining activity at 3 µM: 31.8%
[2]
  inhibition at 3 µM: -2.42%
[2]; [8]
  remaining activity at 3 µM: 99.5%
[2]; [9]
  remaining activity at 3 µM: 105%
[3]
  inhibition at 3 µM: -3.73%
[3]; [8]
  remaining activity at 3 µM: 104%
[3]; [9]
  remaining activity at 3 µM: 103%
[4]
  inhibition at 3 µM: -7.86%
[4]; [8]
  remaining activity at 3 µM: 110%
[4]; [9]
  remaining activity at 3 µM: 106%
[5]
  inhibition at 3 µM: 2.23%
[5]; [8]
  remaining activity at 3 µM: 98.8%
[5]; [9]
  remaining activity at 3 µM: 96.7%
[6]
  inhibition at 3 µM: -1.83%
[6]; [8]
  remaining activity at 3 µM: 104%
[6]; [9]
  remaining activity at 3 µM: 100%
[7]
  inhibition at 3 µM: 7.74%
[7]; [8]
  remaining activity at 3 µM: 94.5%
[7]; [9]
  remaining activity at 3 µM: 90%
